assay: Solubility in unbuffered water; settings: unbuffered de-ionized water, 25° C., average of three experiments
Text: The experiment is repeated three times and the average solubilities are reported as weight percent (wt %) in Table 1.

Compound | Solubility, wt %
1-hydroxyethyl-4-pyridynyl-pyperazine [HEPP] | 60 wt %
CN(C)c1ccncc1 [DMAP, 4-dimethylaminopyridine] | 8 wt %
Cc1cc(N(C)C)cc(C)n1 [DMAPL, 2,6-dimethyl-4-(dimethylamino)pyridine] | 3 wt %
Cc1cc(N(C)C)ccn1 [DMAPP, 2-methyl-4-(dimethylamino)pyridine] | 5 wt %

Reference: patent US9421492B2, “Aminopyridine derivatives for removal of hydrogen sulfide from a gas mixture” (Dow Global Technologies LLC, priority 2011, dated 2016)
